For data set [1], the system named is veligers of quagga mussels. Kind of data set: Efficiency in killing mollusk veligers, beaker exposure. The following applies: approximately 20° C. On the procedure:
Further testing was conducted specifically on veligers of quagga mussels collected from Lake Mead and utilizing citric acid and L-lactic acid. Trials were conducted using 2 replicate beakers per test interval at approximately 20° C. Test beakers (100 mL) were seeded with at least 200 veligers per replicate in 10 mL of veliger concentrate and filtered lake water and then dosed with 90 mL of prepared acid concentrate for each of the tested concentrations of lactic acid or citric acid. Stock acid solutions were measured by weight and added to filtered lake water to make the total volume needed. Controls were run concurrently with treatments and used filtered lake water instead of acid to add into the beaker. Exposure times included 1, 5, and 15 minutes, and 1 and 24 hours to assess mortality for the different concentrations of acids.
The exposure times were 5 minutes, 15 minutes, one hour, and 24 hours.
In the second test, the final concentrations of citric acid and L-lactic acid were 1% and 2% by weight for each acid. The exposure times were one minute and 5 minutes.

The subject of data set [2] is adult dreissenid mussels. Put plainly: Effective pH range determination, adult mussel mortality in pH-adjusted raw lake water. How it is done: To find an optimal pH range at which lactic acid effectively killed adult dreissenid mussels, raw lake water was placed in 4 L water containers and aerated. The pH was adjusted in three containers to about 2.8, 4, and 6, respectively, using lactic acid. The initial water parameters (temperature 20° C., pH 7.6, dissolved oxygen (DO) 7.73, Alkalinity 90 mg/l) were monitored. A fourth container, with no pH adjustment was used for control. Twenty adult mussels of various sizes were placed in each of the three containers. […] Mortality was defined as a gaping shell with the adult mussel not responding to gentle prodding of the flesh.
The experiment was repeated with the pH adjusted to about 5.

In data set [3] the test system is adult dreissenid mussels. The following applies: pH about 4, warm water, after 72 hours.

Molecules are shown by their SMILES. Where two headings read alike, the source gives them in different places.

For orientation: mortality means the percentage killed. Read a low mortality as more survivors.

Consider `C[C@H](O)C(=O)O` [L-lactic acid], for which the veliger mortality in data set [1] (0.6% by weight, one hour exposure) was 99%; in data set [1] (2% by weight, five minute exposure), 86%.
As to `CC(O)C(=O)O` (stereo not drawn) [lactic acid], the mortality in the data set on adult dreissenid mussels [2] (in vivo, pH 4) is on record as 100%; in the data set with adult dreissenid mussels [2] (pH of 6, after 48 hours) it was “no mortality”; in the data set on adult dreissenid mussels [3], “complete mortality”. For the same compound, in the data set with adult dreissenid mussels [2] (pH 2.8, after 48 hours), the shell condition result is “shells were disintegrating”.

The values above are taken from patent publication US20190202719A1, “METHOD FOR CONTROLLING MOLLUSK POPULATIONS” (priority 2016, published 2019).
